Source: ChEMBL document CHEMBL3244002, “Activity-electroreduction relationship of antimicrobial metronidazole analogues” (J Med Chem, 1978)
In brackets after ≈: the same amount, converted by molar mass.

Experiments:
[1] = 1-Octanol-saturated McIlvaine buffer partition coefficient, log P of the compound at 80 uM at pH 6.01 by spectrophotometric analysis; type: physicochemical; conditions: 1-octanol/McIlvaine buffer
Clostridium pasteurianum = assay: Antimicrobial activity against Clostridium pasteurianum ATCC 6013 assessed as growth inhibition after 24 hrs under anaerobic conditions by microscopic analysis; type: functional; conditions: ATCC 6013, 24 h
Trichomonas vaginalis = assay: Antimicrobial activity against Trichomonas vaginalis ATCC 30001 assessed as growth inhibition after 48 hrs under anaerobic conditions by microscopic analysis; type: functional; conditions: ATCC 30001, 48 h
[2] = Effect on magnitude of electroreduction potential (Ep) of clostridial ferridoxin by alternating current polarographic technique; type: physicochemical
[3] = Decrease in current height for electroreduction of S-Fe bonding in clostridial ferridoxin assessed as alternating current reduction peak potential at 32 uM by polarographic technique; type: physicochemical

| logD at 80 µM [1] | MIC (Clostridium pasteurianum) | MIC (Trichomonas vaginalis) | Activity [2] | Activity [3] | Structure (SMILES) |
| --- | --- | --- | --- | --- | --- |
| 0.879 | 0.39 µg/mL (≈ 2.06 µM) | 0.195 µg/mL (≈ 1.03 µM) | – | – | Cc1ncc([N+](=O)[O-])n1CCCl |
| 0.301 | 0.39 µg/mL (≈ 1.83 µM) | 0.098 µg/mL (≈ 0.46 µM) | – | – | CC(=O)OCCn1c([N+](=O)[O-])cnc1C |
| 1.28 | 0.683 µg/mL (≈ 2.49 µM) | 0.195 µg/mL (≈ 0.711 µM) | Not Active | 0.533 V | Cc1ncc([N+](=O)[O-])n1CCSC(=S)N(C)C |
| 0.455 | 0.39 µg/mL (≈ 1.61 µM) | 0.195 µg/mL (≈ 0.805 µM) | – | – | Cc1ncc([N+](=O)[O-])n1CCOC(=O)N(C)C |
| -2.05 | 1.17 µg/mL | 6.25 µg/mL | – | – | Cc1ncc([N+](=O)[O-])n1CCS(=O)(=O)[O-].[Na+] |
| -0.469 | 0.78 µg/mL (≈ 3.68 µM) | 10.9 µg/mL (≈ 51.6 µM) | – | – | CC(=O)NCCn1c([N+](=O)[O-])cnc1C |
| 1.47 | 5.47 µg/mL (≈ 18.4 µM) | 12.5 µg/mL (≈ 42 µM) | – | – | Cc1ncc([N+](=O)[O-])n1CCSc1ccc(Cl)cc1 |
| -0.051 | 0.244 µg/mL (≈ 1.43 µM) | 0.098 µg/mL (≈ 0.573 µM) | – | – | Cc1ncc([N+](=O)[O-])n1CCO [METRONIDAZOLE] |

| Structure (SMILES) | logD at 80 µM [1] | MIC (Clostridium pasteurianum) | MIC (Trichomonas vaginalis) | Activity [2] | Activity [3] |
| --- | --- | --- | --- | --- | --- |
| Cc1ncc([N+](=O)[O-])n1CCN=[N+]=[N-] | 0.755 | 0.39 µg/mL (≈ 1.99 µM) | 0.341 µg/mL (≈ 1.74 µM) | – | – |
